The conditions of series [1]: 15-min incubation with rat liver microsomes; cited from earlier work. A general note: Liver microsomes are vesicles of endoplasmic reticulum, rich in cytochrome P450 enzymes.
The next series deals with T1, Human recombinant MMP-2 (Homo sapiens, UniProt P08253).
T1 sequence (P08253 110-660): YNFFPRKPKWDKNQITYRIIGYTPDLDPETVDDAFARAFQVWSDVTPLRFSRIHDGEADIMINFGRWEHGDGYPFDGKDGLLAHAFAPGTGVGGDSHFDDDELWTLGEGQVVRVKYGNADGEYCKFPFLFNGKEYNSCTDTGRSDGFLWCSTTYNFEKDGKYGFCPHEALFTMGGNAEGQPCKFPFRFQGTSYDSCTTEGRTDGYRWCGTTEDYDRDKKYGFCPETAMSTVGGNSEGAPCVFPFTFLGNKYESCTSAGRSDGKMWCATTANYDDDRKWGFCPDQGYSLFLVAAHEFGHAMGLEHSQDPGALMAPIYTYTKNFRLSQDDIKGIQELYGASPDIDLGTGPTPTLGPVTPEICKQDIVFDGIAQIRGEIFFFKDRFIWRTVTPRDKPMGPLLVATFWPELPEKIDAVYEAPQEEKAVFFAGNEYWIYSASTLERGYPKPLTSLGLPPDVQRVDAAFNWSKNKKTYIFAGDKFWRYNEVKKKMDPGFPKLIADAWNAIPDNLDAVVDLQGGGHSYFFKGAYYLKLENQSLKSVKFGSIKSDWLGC
The series can be described thus: Inhibition of MMP-2, fluorogenic substrate hydrolysis. It counts as biochemical.

The target in series [2] is T2, Human recombinant active MMP-7 (Homo sapiens, UniProt P09237).
T2 sequence (P09237 95-267): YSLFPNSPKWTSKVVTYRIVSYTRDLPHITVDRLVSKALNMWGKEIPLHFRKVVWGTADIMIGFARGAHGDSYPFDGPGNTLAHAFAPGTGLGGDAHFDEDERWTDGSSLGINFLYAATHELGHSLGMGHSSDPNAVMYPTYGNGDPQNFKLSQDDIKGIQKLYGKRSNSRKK
The series can be described thus: Inhibition of MMP-7, fluorogenic substrate hydrolysis. It counts as biochemical.

The target of series [3] is catalytic domain of human recombinant MMP-3 (Homo sapiens, UniProt P08254). The series can be described thus: Inhibition of MMP-3 catalytic domain, fluorogenic substrate hydrolysis. It counts as biochemical.
In series [4] the target is catalytic domain of human recombinant MMP-14 (MT1-MMP) (Homo sapiens, UniProt P50281). Put plainly: Inhibition of MMP-14 catalytic domain, fluorogenic substrate hydrolysis. The format is biochemical.
For another series, the target named is Human recombinant MMP-9 (Homo sapiens, UniProt P14780). The series can be described thus: Inhibition of MMP-9, fluorogenic substrate hydrolysis. It counts as biochemical.
In series [5] the target is T3, catalytic domain of human recombinant MMP-1 (Homo sapiens, UniProt P03956).
T3 sequence (P03956 100-269 limits assumed): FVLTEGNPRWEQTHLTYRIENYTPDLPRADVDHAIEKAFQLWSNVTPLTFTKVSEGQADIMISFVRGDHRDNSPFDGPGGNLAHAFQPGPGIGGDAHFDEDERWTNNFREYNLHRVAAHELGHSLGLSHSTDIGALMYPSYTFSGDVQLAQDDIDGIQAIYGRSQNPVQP
Put plainly: Inhibition of MMP-1 catalytic domain, fluorogenic substrate hydrolysis. The format is biochemical.

Series [6] in a line: In vitro metabolism, incubation with rat liver microsomes. It counts as in vitro ADME. Conditions: more metabolically stable than SB-3CT.

Here are results for seven compounds from PMC2901852 (Chemical biology & drug design, 2009).

Where two headings read alike, the source gives them in different places.

Chain of Human recombinant MMP-9 (P14780 94-707): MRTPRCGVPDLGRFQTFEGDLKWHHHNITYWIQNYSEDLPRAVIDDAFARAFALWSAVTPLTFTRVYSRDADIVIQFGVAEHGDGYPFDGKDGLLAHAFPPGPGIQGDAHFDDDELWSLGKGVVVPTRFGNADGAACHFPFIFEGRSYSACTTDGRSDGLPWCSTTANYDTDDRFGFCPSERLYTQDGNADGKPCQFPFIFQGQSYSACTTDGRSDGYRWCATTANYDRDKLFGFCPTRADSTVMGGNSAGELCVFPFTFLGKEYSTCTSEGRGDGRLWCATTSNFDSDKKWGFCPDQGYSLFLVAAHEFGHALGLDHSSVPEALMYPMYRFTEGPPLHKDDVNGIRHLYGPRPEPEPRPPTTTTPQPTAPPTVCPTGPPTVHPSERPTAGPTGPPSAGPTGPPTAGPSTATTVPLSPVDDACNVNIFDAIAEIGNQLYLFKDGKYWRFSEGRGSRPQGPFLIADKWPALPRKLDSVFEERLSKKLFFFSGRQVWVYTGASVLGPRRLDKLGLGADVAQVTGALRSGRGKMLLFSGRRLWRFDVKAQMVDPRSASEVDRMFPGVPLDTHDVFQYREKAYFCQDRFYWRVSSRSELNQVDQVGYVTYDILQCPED
Chain of catalytic domain of human recombinant MMP-3 (P08254 100-272 limits assumed): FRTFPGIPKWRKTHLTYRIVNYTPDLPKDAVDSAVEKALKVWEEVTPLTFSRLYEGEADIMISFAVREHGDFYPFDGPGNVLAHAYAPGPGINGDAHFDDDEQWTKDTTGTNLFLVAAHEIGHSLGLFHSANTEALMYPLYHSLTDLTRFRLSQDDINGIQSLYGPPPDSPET

On to `O=S(=O)(CC1CS1)c1ccc(Oc2ccccc2)cc1` (centres unmarked) [Compound 1, 2-(4-phenoxyphenylsulfonylmethyl)thiirane], for which, in series [1], the compound remaining is 0.5%.
For orientation: Ki means a measure of affinity in units of concentration, obtained from inhibition or displacement. With `C[C@@H]([C@@H]1CS1)S(=O)(=O)c1ccc(Oc2ccccc2)cc1` [Compound 5a, (2S)-2-(1S-(4-Phenoxyphenylsulfonyl)ethyl)thiirane], the inhibition constant (Ki) at Human recombinant MMP-2 (MMP-2, linear competitive inhibitors) came out at 7.2 ± 0.1 µM.
For the compound `C[C@@H]([C@H]1CS1)S(=O)(=O)c1ccc(Oc2ccccc2)cc1` [Compound 5b, (2R)-2-(1S-(4-Phenoxyphenylsulfonyl)ethyl)thiirane], the inhibitory constant (Ki) in series [2] (read-out: Inhibition (Ki column), MMP-7, up to 60 μM) is above 60 µM; at Human recombinant MMP-2 (MMP-2), 0.18 ± 0.03 µM; in series [4] (MMP-14cat), 0.74 ± 0.17 µM; at Human recombinant MMP-9 (MMP-9), 3.5 ± 0.2 µM; in series [5] (read-out: Inhibition (Ki column), MMP-1cat, up to 60 μM), above 60 µM. Also, the “inhibition at 60 µM” value in series [3] (MMP-3cat, 60 μM inhibitor) worked out at 8% Inhibition at 60 μM. Besides, the “10^–3 kon” value on Human recombinant MMP-2 (MMP-2, slow-binding onset rate constant, values printed as 10^–3 kon) came to 3.3 ± 0.1 M/second; in series [4] (MMP-14cat, values printed as 10^–3 kon), 1.2 ± 0.1 M/second; at Human recombinant MMP-9 (MMP-9, values printed as 10^–3 kon), 0.26 ± 0.01 M/second. The “10^4 koff” value on Human recombinant MMP-2 (MMP-2, values printed as 10^4 koff) was 5.9 ± 1.0 second; in series [4] (MMP-14cat, values printed as 10^4 koff) it was 8.9 ± 2.1 second; on Human recombinant MMP-9 (MMP-9, values printed as 10^4 koff), 9.0 ± 0.6 second. Also, in series [6], the “Metabolic stability relative to SB-3CT” value is given as above 50 fold.
Regarding `C[C@H]([C@H]1CS1)S(=O)(=O)c1ccc(Oc2ccccc2)cc1` [Compound 5c, (2R)-2-(1R-(4-Phenoxyphenylsulfonyl)ethyl)thiirane], the Ki on Human recombinant MMP-2 is 4.1 ± 0.1 µM.
Usually koff stands for the rate constant with which the complex falls apart. In general, kon refers to a measure of how fast the partners come together. Take `C[C@H]([C@@H]1CS1)S(=O)(=O)c1ccc(Oc2ccccc2)cc1` [Compound 5d, (2S)-2-(1R-(4-Phenoxyphenylsulfonyl)ethyl)thiirane]: the Ki in series [2] was above 60 µM; on Human recombinant MMP-2, 0.39 ± 0.03 µM; in series [4] it was 2.1 ± 0.2 µM; at Human recombinant MMP-9 it was 3.3 ± 0.2 µM; in series [5], above 60 µM. In addition, the inhibition at 60 µM in series [3] (read-out: Inhibition at 60 μM) is 9%. Besides, the figures for the koff (on Human recombinant MMP-2 (read-out: 10^4 koff); in series [4] (read-out: 10^4 koff); on Human recombinant MMP-9 (read-out: 10^4 koff)) were 0.00081 ± 6e-05 s⁻¹, 0.00095 ± 9e-05 s⁻¹ and 0.00072 ± 4e-05 s⁻¹, respectively. Further, the kon stood at 2100 ± 100 M⁻¹ s⁻¹ on Human recombinant MMP-2 (read-out: 10^–3 kon), 460 ± 10 M⁻¹ s⁻¹ in series [4] (read-out: 10^–3 kon) and 220 ± 10 M⁻¹ s⁻¹ on Human recombinant MMP-9 (read-out: 10^–3 kon). The “Metabolic stability relative to SB-3CT” value in series [6] is listed as above 50 fold.
For the compound `C[C@@H]([C@H]1C[S+]1[O-])S(=O)(=O)c1ccc(Oc2ccccc2)cc1` (stereo partly drawn) [Compound 12, (2R)-2-(1S-(4-Phenoxyphenylsulfonyl)ethyl)thiirane S-oxide], the Ki at Human recombinant MMP-2 (MMP-2) is 20 µM. In addition, the “inhibition at a fixed 60 μM inhibitor concentration” value in series [4] (MMP-14, 60 μM) was found to be 0%; on Human recombinant MMP-9 (MMP-9, 60 μM), 30%.
For the compound `CC(C1CS1)S(=O)(=O)c1ccc(Oc2ccc(O)cc2)cc1` (centres unmarked) [Compound 13b], the inhibition in words entry is “Marginal to no inhibition” in series [2] (MMP-7, inhibitor concentrations up to 60 μM); “Marginal to no inhibition” in series [3] (MMP-3, inhibitor concentrations up to 60 μM); “Marginal to no inhibition” in series [5] (MMP-1, inhibitor concentrations up to 60 μM). The inhibitory constant (Ki) at Human recombinant MMP-2 (MMP-2) is 0.22 ± 0.09 µM; in series [4] (MMP-14cat) it was 2.1 ± 0.7 µM; on Human recombinant MMP-9 (MMP-9), 1.9 ± 0.7 µM.
